Source: ChEMBL document CHEMBL1150720, “Inhibition of mitochondrial NADH oxidase, succinoxidase, and ATPase by naturally occurring flavonoids” (J Nat Prod, 1987)
Active and inactive are the calls of the source. The rule behind the calls is not given here.

Legend:
[1] = organism: Bos taurus; test: Inhibition of beef heart mitochondrial NADH oxidase assessed as specific activity at 0.35 mM preincubated for 15 mins relative to control; parameters: scale not given: the % may be the effect or the level left
[2] = organism: Bos taurus; test: Inhibition of beef heart mitochondrial succinoxidase assessed as specific activity at 0.35 mM preincubated for 15 mins relative to control; parameters: scale not given: the % may be the effect or the level left
[3] = Inhibition of rat liver mitochondrial ATPase assessed per mg of protein; conditions: read-out: I50
[4] = organism: Rattus norvegicus; test: Inhibition of rat liver mitochondrial ATPase assessed as specific activity at 0.42 mM relative to control; parameters: scale not given: the % may be the effect or the level left
[5] = Inhibition of beef heart mitochondrial NADH oxidase assessed per mg of protein; parameters: species or system Bos taurus; conditions: read-out: I50
[6] = Inhibition of beef heart mitochondrial succinoxidase assessed per mg of protein; parameters: species or system Bos taurus; conditions: read-out: I50
[7] = organism: Bos taurus; test: Inhibition of beef heart mitochondrial NADH oxidase assessed as complete enzyme inhibition at 100 nmol/mg

Q: For O=C1C[C@@H](c2ccc(O)cc2)Oc2cc(O)cc(O)c21 [NARINGENIN], which Activity [1] is on record?
A: The Activity was 83.9%.

Q: And the Activity [2]?
A: Its Activity is 84.8%.

Q: What about the IC50 [3] of the same compound?
A: Its IC50 is 1800 nmol/mg.

Q: What about the Activity [4] of the same compound?
A: The Activity was 43.6%.

Q: With O=c1cc(-c2ccc(O)cc2)oc2cc(O)cc(O)c12 [APIGENIN] as the compound, how does the Activity [1] read?
A: The Activity was 12.9%.

Q: And the Activity [2]?
A: The Activity was 93.8%.

Q: And the Activity [4]?
A: Its Activity is 84.6%.

Q: What about the IC50 [5] of the same compound?
A: Its IC50 is 920 nmol/mg.

Q: Which results are given for O=c1cc(-c2ccccc2)oc2ccccc12 [FLAVONE]?
A: Activity [1]: 14.5%; Activity [2]: 82%; Activity [4]: 67.4%; IC50 [5]: 240 nmol/mg

Q: Which results are given for O=c1c(O)c(-c2ccc(O)c(O)c2)oc2cc(O)ccc12 [FISETIN]?
A: Activity [1]: 8.3%; Activity [2]: 9.6%; IC50 [3]: 480 nmol/mg; Activity [4]: 17.2%; IC50 [5]: 15 nmol/mg; IC50 [6]: 45 nmol/mg; Activity [7]: Active

Q: What does the source list for COc1ccc(-c2cc(=O)c3c(O)cc(O)cc3o2)cc1?
A: Activity [1]: 88.6%; Activity [2]: 99.3%; Activity [4]: 98.7%

Q: Which Activity [1] does the source give for C[C@@H]1O[C@@H](OC[C@H]2O[C@@H](Oc3c(-c4ccc(O)c(O)c4)oc4cc(O)cc(O)c4c3=O)[C@H](O)[C@@H](O)[C@@H]2O)[C@H](O)[C@H](O)[C@H]1O [RUTIN] here?
A: Its Activity is 49.1%.

Q: What about the Activity [2] of the same compound?
A: The Activity was 66.7%.

Q: And the Activity [4]?
A: The Activity was 66.5%.

Q: And the IC50 [5]?
A: The IC50 was 1890 nmol/mg.

Q: What does the source list for COc1ccccc1-c1cc(=O)c2c(OC)cccc2o1?
A: Activity [1]: 86.9%; Activity [2]: 80.8%; Activity [4]: 77.3%

Q: For O=c1c(O)c(-c2ccccc2)oc2cc(O)cc(O)c12 [GALANGIN], which Activity [1] is on record?
A: The Activity was 48.6%.

Q: What about the Activity [2] of the same compound?
A: The Activity was 92.4%.

Q: And the Activity [4]?
A: The Activity was 99.9%.

Q: And the IC50 [5]?
A: The IC50 was 1670 nmol/mg.

Q: Which Activity [1] does the source give for O=c1cc(-c2ccccc2)oc2cc(O)cc(O)c12 [CHRYSIN] here?
A: The Activity was 11.2%.

Q: What about the Activity [2] of the same compound?
A: Its Activity is 75.8%.

Q: What about the Activity [4] of the same compound?
A: The Activity was 77.7%.

Q: What about the IC50 [5] of the same compound?
A: The IC50 was 250 nmol/mg.

Q: With O=c1cc(-c2ccccc2)oc2cccc(O)c12 [5-HYDROXYFLAVONE] as the compound, how does the Activity [1] read?
A: Its Activity is 14.6%.

Q: And the Activity [2]?
A: Its Activity is 95.7%.

Q: And the Activity [4]?
A: Its Activity is 98.9%.

Q: And the IC50 [5]?
A: Its IC50 is 425 nmol/mg.

Q: With COc1ccc(-c2oc3cc(O)cc(O)c3c(=O)c2O)cc1 as the compound, how does the Activity [1] read?
A: Its Activity is 70.6%.

Q: What about the Activity [2] of the same compound?
A: Its Activity is 98.7%.

Q: And the Activity [4]?
A: The Activity was 96.1%.

Q: With O=c1cc(-c2ccccc2)oc2cc(O)ccc12 [7-HYDROXYFLAVONE] as the compound, how does the Activity [1] read?
A: Its Activity is 54.2%.

Q: What about the Activity [2] of the same compound?
A: Its Activity is 91.3%.

Q: What about the Activity [4] of the same compound?
A: The Activity was 95.1%.

Q: What about the IC50 [5] of the same compound?
A: Its IC50 is 1400 nmol/mg.

Q: Which IC50 [5] does the source give for O=C1c2ccc(O)cc2O[C@H](c2ccc(O)c(O)c2)[C@H]1O [FUSTIN] here?
A: Its IC50 is 671 nmol/mg.

Q: Which results are given for O=c1c(O)c(-c2ccc(O)cc2)oc2cc(O)cc(O)c12?
A: Activity [1]: 59.3%; Activity [2]: 84.4%; Activity [4]: 94.2%

Q: Which Activity [1] does the source give for O=c1c(O)c(-c2ccc(O)cc2O)oc2cc(O)cc(O)c12 [MORIN] here?
A: Its Activity is 18%.

Q: And the Activity [2]?
A: The Activity was 31.5%.

Q: And the IC50 [3]?
A: The IC50 was 120 nmol/mg.

Q: And the Activity [4]?
A: Its Activity is 13.3%.

Q: And the IC50 [5]?
A: The IC50 was 430 nmol/mg.

Q: What about the IC50 [6] of the same compound?
A: The IC50 was 730 nmol/mg.

Q: Which IC50 [5] does the source give for O=C1c2c(O)cc(O)cc2O[C@H](c2ccc(O)c(O)c2)[C@H]1O [(+)-TAXIFOLIN] here?
A: Its IC50 is 1040 nmol/mg.

Q: What does the source list for O=c1c(O)c(-c2ccc(O)c(O)c2)oc2cc(O)cc(O)c12 [QUERCETIN]?
A: Activity [1]: 6.4%; Activity [2]: 21.8%; IC50 [3]: 205 nmol/mg; Activity [4]: 7.1%; IC50 [5]: 145 nmol/mg; IC50 [6]: 715 nmol/mg

Q: With O=c1c(O)c(-c2cc(O)c(O)c(O)c2)oc2cc(O)cc(O)c12 [MYRICETIN] as the compound, how does the Activity [1] read?
A: The Activity was 12%.

Q: And the Activity [2]?
A: The Activity was 14.7%.

Q: What about the IC50 [3] of the same compound?
A: The IC50 was 370 nmol/mg.

Q: What about the Activity [4] of the same compound?
A: Its Activity is 8.4%.

Q: What about the IC50 [5] of the same compound?
A: The IC50 was 35 nmol/mg.

Q: And the IC50 [6]?
A: The IC50 was 45 nmol/mg.

Q: Which Activity [1] does the source give for O=c1c(-c2ccc(O)cc2)coc2cc(O)cc(O)c12 [GENISTEIN] here?
A: The Activity was 6.6%.

Q: What about the Activity [2] of the same compound?
A: Its Activity is 98.3%.

Q: And the Activity [4]?
A: Its Activity is 69.2%.

Q: What about the IC50 [5] of the same compound?
A: Its IC50 is 365 nmol/mg.

Q: What does the source list for O=C1CC(c2ccccc2)Oc2ccccc21 (centres undefined) [FLAVANONE]?
A: Activity [1]: 6.5%; Activity [2]: 84.8%; Activity [4]: 73.4%; IC50 [5]: 310 nmol/mg
